Test results reported in patent US6864272B2, “Method and composition for treating cancer using cellular organelle crystallizing agents” (priority 2000, dated 2005).

Columns and labels:
[1] = tested on: SDH; experiment: Inhibition of crystal formation on cellular structures by prior incubation with SDH inhibitor; format: cell-based; details: prior incubation of cells with the SDH inhibitor, crystals of Examples 4 through 7
Source text: The crystallization of organelles, such as centrosome, mitochondrion, or nuclear envelopes (or endoplasmic retulum), effectively stopped cell proliferation and induced cell death as well. This kind of cell death, which is different form either necrosis or appoptosis, is called cellular-organelle-crystallizatin-induced-death, […]. COCID also refers to the cell death, induced by the crystallization of cytoskeletons as well as the crystallization of the sub-units of cellular organelles and cytoskeletons. COCID further refers to the cell death, induced by the crystallization of proteins and small molecules located on cytoskeletons or the sub-units of cellular organelles and ccytoskeletons.
[…]

[2] = tested on: 9 L gliosarcoma; experiment: In vivo antitumor activity of tetrazolium salts in polylactic acid polymer, established flank tumor in rats (Example 3); details: 2.5 mg/kg in polylactic acid polymer implanted in 14 day established tumor, tumor volume on day 60, n=6

| Compound | inhibition of the crystals on the cellular structures [1] | Tumor size [2] [cm^3] |
| --- | --- | --- |
| O=C(O)CC[N+](=O)[O-] [nitropropionic acid] | could be inhibited | – |
| c1ccc(-c2nn(-c3ccccc3)[n+](-c3ccccc3)n2)cc1 [TR, 2,3,5-triphenyltetrazolium chloride] | – | 44 ± 5.3 |
| c1ccc(-c2nn(-c3ccccc3)[n+](-c3cccc4ccccc34)n2)cc1 [TV, 2,5-diphenyl-3-[1-naphthyl]-2H-tetrazolium chloride] | – | 21 ± 2.3 |
